Data: patent US6589993B2, “Treating vancomycin-intermediates and multiresistant staphylococci infection with thiamphenicol or a salt thereof” (Zambon Group S.p.A., priority 2000, dated 2003)

Columns and labels:
[1] = tested on: S. aureus Met-R multiresistant strains; assay: MIC determination (NCCLS broth microdilution), methicillin-resistant multiresistant S. aureus strains; assay type: cell-based, Staphylococcus aureus; conditions: for MIC: antibiotype Oxa, Ery
Procedure: (§1) The MICs of thiamphenicol and of other antibiotics was obtained by using the method proposed by NCCLS (National Committee for Clinical Laboratory Standards, 1999).
(§2) Various antibiotic concentrations were added to bacteria in exponental growth (final inoculum 5×10^5 […]); dilution in Mb (cation-supplemented Mueller-Hinton broth) and distribution on a microplate by using an automatic diluting machine Biomek 1000 (Beckman, USA). MHb charged with 2% NaCl was used to test the methicillin activity.
(§3) The antibiotic concentration which hinders a visible growth after 18-24 hours of incubation at 37° C., was registered as MIC.
(§4) S. aureus ATCC 29213 was used as quality control strain.

[2] = tested on: S. aureus vancomycin-intermediates (VISA) Met-R strains; assay: MIC determination (NCCLS broth microdilution), VISA Met-R strains; assay type: cell-based, Staphylococcus aureus; conditions: for MIC: antibiotype Oxa, Cip, Clin, Ery
Procedure: as §1, §2, §3, §4

With teicoplanine the “MIC 50%” value ([1]; S. aureus (50) Met-R) was 0,5 mg/l, the “MIC 90%” value ([1]; S. aureus (50) Met-R) was 1 µg/mL and the “MIC Range” value ([1]; S. aureus (50) Met-R) was 0,12-2 mg/l. For the same substance, the “% susceptible at breakpoint” value ([1]; S. aureus (50) Met-R, NCCLS (1999) breakpoints) was 100%, the MIC ([1]; Strain 1, Cip, Clin, Gm) was 0.25 µg/mL and the MIC ([1]; Strain 2, Clin, Fos) was 0.5 µg/mL. The MIC ([1]; Strain 3, Cip, Clin, Gm) was 1 µg/mL, the MIC ([1]; Strain 4, Cip, Gm) was 0.5 µg/mL and the MIC ([1]; Strain 5, Cip, Clin) was 1 µg/mL. The MIC ([1]; Strain 6, Clin, Gm) was 1 µg/mL, the MIC ([1]; Strain 7, Cip, Gm) was 0.25 µg/mL and the MIC ([1]; Strain 8, Cip, Clin) was 0.25 µg/mL. The MIC ([1]; Strain 9, Cip, Clin, Gm) was 0.25 µg/mL, the MIC ([1]; Strain 10, Cip, Clin, Gm) was 0.25 µg/mL and the MIC ([1]; Strain 11, Clin, Rif) was 1 µg/mL. For the same substance, the MIC ([1]; Strain 12, Cip, Clin) was 1 µg/mL, the MIC ([1]; Strain 13, Cip, Clin) was 1 µg/mL and the MIC ([1]; Strain 14, Clin, Cip) was 0.5 µg/mL. It also gave an MIC ([1]; Strain 15, Cip, Clin, Gm) of 0.25 µg/mL, an MIC ([1]; Strain 16, Cip, Clin) of 1 µg/mL and an MIC ([1]; Strain 17, Cip, Clin) of 0.25 µg/mL. The MIC ([1]; Strain 18, Cip, Clin, Gm) was 1 µg/mL, the MIC ([1]; Strain 19, Cip, Clin, Gm) was 1 µg/mL and the MIC ([1]; Strain 20, Cip, Clin, Gm) was 0.25 µg/mL. For the same substance, the MIC ([1]; Strain 21, Cip, Clin, Gm) was 0.5 µg/mL, the MIC ([1]; Strain 22, Cip, Clin) was 0.25 µg/mL and the MIC ([1]; Strain 23, Cip, Clin, Gm) was 0.5 µg/mL. It also gave an MIC ([1]; Strain 24, Cip, Clin, Gm) of 0.5 µg/mL, an MIC ([1]; Strain 25, Cip, Clin, Gm) of 1 µg/mL and an MIC ([1]; Strain 26, Cip, Clin, Fos, Gm) of 1 µg/mL. It also gave an MIC ([1]; Strain 27, Cip, Clin, Fos, Gm) of 1 µg/mL, an MIC ([1]; Strain 28, Cip, Clin, Gm) of 0.5 µg/mL and an MIC ([1]; Strain 29, Clin, Fos) of 0.5 µg/mL. The MIC ([1]; Strain 30, Cip, Clin, Gm, SXT, Dox) was 1 µg/mL, the MIC ([1]; Strain 31, Cip, Clin, Fox, Gm) was 0.5 µg/mL and the MIC ([1]; Strain 32, Cip, Clin, Gm, SXT, Rif) was 0.5 µg/mL. It also gave an MIC ([1]; Strain 33, Cip, Clin, Gm) of 0.5 µg/mL, an MIC ([1]; Strain 34, Cip, Clin, Gm) of 0.25 µg/mL and an MIC ([1]; Strain 35, Cip, Clin, Gm) of 0.5 µg/mL. It also gave an MIC ([1]; Strain 36, Cip, Clin, Fos) of 1 µg/mL, an MIC ([1]; Strain 37, Cip, Clin, Fos, Gm) of 0.25 µg/mL and an MIC ([1]; Strain 38, Cip, Gm) of 0.25 µg/mL. The MIC ([1]; Strain 39, Cip, Clin, Fos, Gm) was 0.25 µg/mL, the MIC ([1]; Strain 40, Cip, Clin, Gm) was 0.25 µg/mL and the MIC ([1]; Strain 41, Cip, Clin) was 0.25 µg/mL. The MIC ([1]; Strain 42, Cip, Clin, Gm) was 0.12 µg/mL, the MIC ([1]; Strain 43, Cip, Clin, Gm) was 0.5 µg/mL and the MIC ([1]; Strain 44, Cip, Clin, Gm, Rif, Dox) was 1 µg/mL. For the same substance, the MIC ([1]; Strain 45, Cip, Clin, Gm, Rif, Dox, Fos) was 0.5 µg/mL, the MIC ([1]; Strain 46, Clin, Fos) was 0.25 µg/mL and the MIC ([1]; Strain 47, Cip, Clin, Gm) was 0.12 µg/mL. The MIC ([1]; Strain 48, Cip, Clin) was 2 µg/mL, the MIC ([1]; Strain 49, Cip, Gm) was 0.5 µg/mL and the MIC ([1]; Strain 50, Cip, Clin, Gm, Rif, Dox) was 0.5 µg/mL. The MIC ([2]; Strain 51 VISA) was 8 µg/mL, the MIC ([2]; Strain 52 VISA) was 8 µg/mL and the “MIC Range” value ([2]; VISA (2) Met-R) was 8 µg/mL. The “% susceptible at breakpoint” value ([2]; VISA (2) Met-R, NCCLS (1999) breakpoints) was 100%.
